# Read-outs that look alike come from different tables or passages of the source. Residues, ends and D or L forms follow the SMILES beside them.
# Columns and labels:
# [1] = test system: B. subtilis (ATCC 6633); assay: microbe, parasite or virus in culture; assay type: cell-based; conditions: for MIC: B. subtilis (ATCC 6633), means of three independent experiments each in duplicate ± SD, read-out: Minimum inhibitory conc. (MIC) against bacteria 9; for Minimum inhibitory conc. (MIC) against bacteria 9: ATCC 6633
# Excerpt: (§1) Piscidin-1 and its analogs were examined for bacterial growth-inhibiting activity in liquid cultures against Gram-positive bacteria including MRSA strains and Gram-negative bacteria (Table 2). […] The therapeutic index is a parameter that signify the specificity or selectivity of antimicrobial agents towards microorganisms over mammalian cells.
# (§2) Antibacterial assays with all the peptides were done in 96-well microtiter plates against different Gram-positive, Gram-negative and resistant bacteria as described earlier.
# [2] = test system: K. pneumoniae (ATCC 27736); assay: microbe, parasite or virus in culture; assay type: cell-based; conditions: for MIC: K. pneumoniae (ATCC 27736), means of three independent experiments each in duplicate ± SD, read-out: Minimum inhibitory conc. (MIC) against bacteria 10; for Minimum inhibitory conc. (MIC) against bacteria 10: ATCC 27736
# Excerpt: as §1, §2
# [3] = test system: P. aeruginosa (ATCC BAA-427); assay: microbe, parasite or virus in culture; assay type: cell-based; conditions: for MIC: P. aeruginosa (ATCC BAA-427), means of three independent experiments each in duplicate ± SD, read-out: Minimum inhibitory conc. (MIC) against bacteria 8; for Minimum inhibitory conc. (MIC) against bacteria 8: ATCC BAA-427
# Excerpt: as §1, §2
# [4] = test system: Staphylococcus aureus (ATCC 25923); assay: microbe, parasite or virus in culture; assay type: cell-based; conditions: for MIC: Staphylococcus aureus (ATCC 25923), means of three independent experiments each in duplicate ± SD, read-out: Minimum inhibitory conc. (MIC) against bacteria 1; for Minimum inhibitory conc. (MIC) against bacteria 1: ATCC 25923
# Excerpt: as §1, §2
# [5] = test system: Staphylococcus aureus (ATCC 29213); assay: microbe, parasite or virus in culture; assay type: cell-based; conditions: for MIC: Staphylococcus aureus (ATCC 29213), means of three independent experiments each in duplicate ± SD, read-out: Minimum inhibitory conc. (MIC) against bacteria 2; for Minimum inhibitory conc. (MIC) against bacteria 2: ATCC 29213
# Excerpt: as §1, §2
# [6] = test system: Staphylococcus aureus (ATCC 1708 MRSA); assay: microbe, parasite or virus in culture
# Excerpt: as §1, §2
# [7] = test system: Staphylococcus aureus (ATCC 33592 Gentamycin Resistant); assay: microbe, parasite or virus in culture
# Excerpt: as §1, §2
# [8] = test system: Staphylococcus aureus (ATCC 700698 MRSA); assay: microbe, parasite or virus in culture
# Excerpt: as §1, §2
# [9] = test system: Staphylococcus aureus (ATCC 700699 MRSA); assay: microbe, parasite or virus in culture
# Excerpt: as §1, §2
# [10] = test system: Staphylococcus aureus (ATCC BAA-44 MRSA); assay: microbe, parasite or virus in culture
# Excerpt: as §1, §2
# [11] = test system: E. coli (ATCC 25922); assay: Antibacterial activity (MIC), liquid culture in 96-well microtiter plates; assay type: cell-based; conditions: read-out: Minimum inhibitory conc. (MIC) against bacteria 11
# Excerpt: as §1, §2
# [12] = test system: human red blood cells (hRBCs); assay type: cell-based
# Excerpt: Cytotoxic activity of piscidin-1 and its designed analogs was examined by assaying the lysis of human red blood cells (hRBCs) and the viability of murine 3T3 cells in presence of these peptides. […] Introduction of D-lysine (dK)residues instead of threonine residues at 15th & 21st positions further reduced the haemolytic activity of piscidin-1 (Fig. 1A). Overall, haemolytic activity of these peptides against hRBCs followed the order piscidin-1 > T15K-piscidin-1 > T15dK-piscidin-1 > T15,21K-piscidin-1 > T15,21dK-piscidin-1. Viability of 3T3 cells as determined by MTT assay in the presence of these peptides followed the same trend as their haemolytic activity (Fig. 1B).
# Haemolytic activity of the peptides against human red blood cells in PBS was performed by assaying the ability of the peptides to lyse the hRBCs[24][48]. For this purpose, fresh human red blood cells (hRBCs) were collected in the presence of an anti-coagulant from a healthy volunteer. After washing the blood three times with PBS haemolytic activity of the peptides were determined as reported previously. Methodology of our experiment with human blood was in accordance with relevant guidelines and regulations of CSIR-central drug research institute ethics committee and was approved by it with approval No. CDRI/IEC/2014/A5. Further, informed consent was obtained from the healthy volunteer before collection of blood as per the guideline of our Institutional ethics committee.
# [13] = test system: hRBCs; assay: Localization of NBD-labelled peptides onto hRBCs by confocal microscopy, quantitative fluorescence; assay type: cell-based, human; conditions: NBD-labelled peptides ~10.0 μM, at least 25 cells analysed
# Excerpt: Figure 3 Confocal laser scanning microscopy to look into the localization of piscidin-1 and its selected analogs onto E. coli and hRBCs. […] Fluorescence and DIC images for treatment of different cells with each of the peptides are shown as marked on top of the respective panel. Panels (C) and (D) show the quantitative analysis of fluorescence intensity of E. coli and hRBCsbound to NBD-labeled piscidin-1, T15,21K-piscidin-1 and T15,21dK-piscidin-1 respectively.
# The localization of NBD-labeled piscidin-1, T15,21K-piscidin-1 and T15,21dK-piscidin-1 was also studied onto hRBCs by confocal microscopy. […] Quantitative analyses of the confocal microscopic fluorescence images were carried out. At least 25 cells from fluorescence images for each set of experiments were included in the analysis. The results are shown at the bottom of the fluorescence images of the respective cells (Fig. 3C and D).
# [14] = test system: E. coli 0111:B4 LPS-administered mice; assay: In vivo anti-LPS activity: survival of LPS-administered mice (septic shock); conditions: single dose 1.0 mg/kg i.p. after LPS 12 mg/kg; BALB/c mice; monitored 7 days
# Procedure: Septic shock in BALB/c mice was induced by intraperitoneal (i.p.) injection of E. coli LPS (12 mg/kg) followed by i.p. injection of T15,21K-piscidin-1 (0.5 mg/Kg) or T15,21dK-piscidin-1 (1 mg/Kg) or polymyxin B (1 mg/Kg) ~5 min later. Mice treated with only saline was taken as control. Survival of the animals (n = 5) was monitored for 7 days (***p < 0.0001, log-rank test).
# Polymyxin B was taken as the positive control and the experiments were performed as reported earlier[14][30][31].
# In vivo studies, treat ment of Mice
# Female BALB/c mice (National laboratory animal centre, central drug research institute,
# Lucknow) we re given a s tandard laborato r y diet an d water ad libitum and housed under controlled
# environmental conditions. The mice wer e approx imatel y 25 g each at the st art of experiments. All
# the mice were divided into experimental groups for the administration of LPS and peptides. Mice
# were treated with 12 m g/ kg E. coli 0111: B4 LPS i n presen ce and in absen ce of peptide in different
# experimental groups. The mice treated with saline onl y, in absence of LP S were considered as
# experimental controls. To study the efficacy of a peptide in neutralizing LPS-induced pro-
# inflammatory responses in mice ~5 min post LPS treatment, the respective peptide was
# administered i.p. at a site other than the one, used for LPS injection. […] Survival of mice was
# monitored for 7 da ys. Survival of mice was also mo nitored following th e treatment of onl y p eptides
# for investigating their toxic effects.
# [15] = Staphylococcus aureus (ATCC 1708 MRSA), means of three independent experiments each in duplicate ± SD
# [16] = Staphylococcus aureus (ATCC 33592 Gentamycin Resistant), means of three independent experiments each in duplicate ± SD
# [17] = Staphylococcus aureus (ATCC 700698 MRSA), means of three independent experiments each in duplicate ± SD
# [18] = Staphylococcus aureus (ATCC 700699 MRSA), means of three independent experiments each in duplicate ± SD
# [19] = Staphylococcus aureus (ATCC BAA-44 MRSA), means of three independent experiments each in duplicate ± SD
# [20] = means of three independent experiments each in duplicate ± SD
compound,measurement,setting,value
Gentamycin [reference compound],MIC,[1],0.048 µM
same,MIC,[2],3.26 µM
same,MIC,[3],1.46 µM
same,MIC,[4],0.8 µM
same,MIC,[5],1.6 µM
same,Minimum inhibitory conc. (MIC) against bacteria 7,[6]; [15],3.2 µM
same,Minimum inhibitory conc. (MIC) against bacteria 4,[7]; [16],>100 µM
same,Minimum inhibitory conc. (MIC) against bacteria 6,[8]; [17],>100 µM
same,Minimum inhibitory conc. (MIC) against bacteria 3,[9]; [18],>100 µM
same,Minimum inhibitory conc. (MIC) against bacteria 5,[10]; [19],>50 µM
same,MIC,[11]; [20],3.14 µM
H-FFHHIFRGIVHVGKTIHRLVTG-NH2 [Piscidin-1],Minimum inhibitory conc. (MIC) against bacteria 9,[1],8.0 ± 1.0 µM
same,Minimum inhibitory conc. (MIC) against bacteria 10,[2],3.8 ± 0.5 µM
same,Minimum inhibitory conc. (MIC) against bacteria 8,[3],6.0 ± 0.7 µM
same,Minimum inhibitory conc. (MIC) against bacteria 1,[4],1.25 ± 0.3 µM
same,Minimum inhibitory conc. (MIC) against bacteria 2,[5],2.5 ± 0.4 µM
same,Minimum inhibitory conc. (MIC) against bacteria 7,[6]; ATCC 1708,2.5 ± 0.4 µM
same,Minimum inhibitory conc. (MIC) against bacteria 4,[7]; ATCC 33592,2.5 ± 0.4 µM
same,Minimum inhibitory conc. (MIC) against bacteria 6,[8]; ATCC 700698,2.5 ± 0.4 µM
same,Minimum inhibitory conc. (MIC) against bacteria 3,[9]; ATCC 700699,5.0 ± 0.7 µM
same,Minimum inhibitory conc. (MIC) against bacteria 5,[10]; ATCC BAA-44,2.5 ± 0.4 µM
same,MIC,[11]; [20],3.0 µM
same,"HC50, peptide concentration leading to 50% lysis of human RBC",[12],15 µM
H-FFHHIFRGIVHVGKKIHRLVTG-NH2 [T15K Piscidin-1],Minimum inhibitory conc. (MIC) against bacteria 9,[1],8.5 ± 1.2 µM
same,Minimum inhibitory conc. (MIC) against bacteria 10,[2],3.2 ± 0.4 µM
same,Minimum inhibitory conc. (MIC) against bacteria 8,[3],7.0 ± 1.0 µM
same,Minimum inhibitory conc. (MIC) against bacteria 1,[4],1.25 ± 0.3 µM
same,Minimum inhibitory conc. (MIC) against bacteria 2,[5],2.5 ± 0.4 µM
same,Minimum inhibitory conc. (MIC) against bacteria 7,[6]; [15],2.5 ± 0.4 µM
same,Minimum inhibitory conc. (MIC) against bacteria 4,[7]; [16],1.25 ± 0.3 µM
same,Minimum inhibitory conc. (MIC) against bacteria 6,[8]; [17],2.5 ± 0.4 µM
same,Minimum inhibitory conc. (MIC) against bacteria 3,[9]; [18],2.5 ± 0.4 µM
same,Minimum inhibitory conc. (MIC) against bacteria 5,[10]; [19],1.25 ± 0.3 µM
same,MIC,[11]; [20],3.5 µM
same,"HC50, peptide concentration leading to 50% lysis of human RBC",[12],46 µM
"X-FFHHIFRGIVHVGKKIHRLVKG–amide [NBD-T15,21K-piscidin-1, T15,21K-piscidin-1 labelled at its N-terminus by NBD]",fold lower fluorescence of hRBCs bound to peptide than cells bound to NBD-labeled piscidin-1,[13],about 5 fold
CC[C@H](C)[C@H](NC(=O)CNC(=O)[C@H](CCCNC(=N)N)NC(=O)[C@H](Cc1ccccc1)NC(=O)[C@@H](NC(=O)[C@H](Cc1c[nH]cn1)NC(=O)[C@H](Cc1c[nH]cn1)NC(=O)[C@H](Cc1ccccc1)NC(=O)[C@@H](N)Cc1ccccc1)[C@@H](C)CC)C(=O)N[C@H](C(=O)N[C@@H](Cc1c[nH]cn1)C(=O)N[C@H](C(=O)NCC(=O)N[C@@H](CCCCN)C(=O)N[C@H](CCCCN)C(=O)N[C@H](C(=O)N[C@@H](Cc1c[nH]cn1)C(=O)N[C@@H](CCCNC(=N)N)C(=O)N[C@@H](CC(C)C)C(=O)N[C@H](C(=O)N[C@H](C(=O)NCC(N)=O)[C@@H](C)O)C(C)C)[C@@H](C)CC)C(C)C)C(C)C [T15dK Piscidin-1] (HELM PEPTIDE1{F.F.H.H.I.F.R.G.I.V.H.V.G.K.[dK].I.H.R.L.V.T.G.[am]}$$$$V2.0),Minimum inhibitory conc. (MIC) against bacteria 9,[1],9.0 ± 1.3 µM
same,Minimum inhibitory conc. (MIC) against bacteria 10,[2],3.6 ± 0.5 µM
same,Minimum inhibitory conc. (MIC) against bacteria 8,[3],7.5 ± 1.0 µM
same,Minimum inhibitory conc. (MIC) against bacteria 1,[4],2.5 ± 0.4 µM
same,Minimum inhibitory conc. (MIC) against bacteria 2,[5],2.5 ± 0.4 µM
same,Minimum inhibitory conc. (MIC) against bacteria 7,[6]; ATCC 1708,2.5 ± 0.4 µM
same,Minimum inhibitory conc. (MIC) against bacteria 4,[7]; ATCC 33592,2.5 ± 0.4 µM
same,Minimum inhibitory conc. (MIC) against bacteria 6,[8]; ATCC 700698,5.0 ± 0.7 µM
same,Minimum inhibitory conc. (MIC) against bacteria 3,[9]; ATCC 700699,10.0 ± 1.4 µM
same,Minimum inhibitory conc. (MIC) against bacteria 5,[10]; ATCC BAA-44,2.5 ± 0.4 µM
same,MIC,[11]; [20],4.0 µM
same,"HC50, peptide concentration leading to 50% lysis of human RBC",[12],125 µM
"X-FFHHIFRGIVHVGKkIHRLVkG–amide [NBD-T15,21dK-piscidin-1, T15,21dK-piscidin-1 labelled at its N-terminus by NBD]",fold lower fluorescence of hRBCs bound to peptide than cells bound to NBD-labeled piscidin-1,[13],~7.5 fold
polymyxin B [reference compound],mortality rate of LPS-administered mice,[14],zero
"CCn1cc(C(=O)O)c(=O)c2cc(F)c(N3CCNCC3)cc21 [Norfloxacin, reference compound]",MIC,"[1]; Bacillus subtilis, ATCC6633",0.39 µM
same,MIC,"[2]; Klebsiella pneumoniae, ATCC27736",0.125 µM
same,MIC,"[3]; Pseudomonas aeruginosa, ATCCBAA427",2.19 µM
same,MIC,[4]; ATCC25923,1.22 µM
same,MIC,[5]; ATCC29213,2.44 µM
same,MIC,"[6]; Staphylococcus aureus, ATCC1708|MRSA, read-out: Minimum inhibitory conc. (MIC) against bacteria 7",> 150 µM
same,MIC,"[7]; Staphylococcus aureus, ATCC33592, read-out: Minimum inhibitory conc. (MIC) against bacteria 4",2.44 µM
same,MIC,"[8]; Staphylococcus aureus, ATCC700698|MRSA, read-out: Minimum inhibitory conc. (MIC) against bacteria 6",> 150 µM
same,MIC,"[9]; Staphylococcus aureus, ATCC700699|MRSA, read-out: Minimum inhibitory conc. (MIC) against bacteria 3",> 150 µM
same,MIC,"[10]; Staphylococcus aureus, ATCCBAA44|MRSA, read-out: Minimum inhibitory conc. (MIC) against bacteria 5",39 µM
same,MIC,"[11]; Escherichia coli, ATCC25922, means of three independent experiments each in duplicate ± SD",0.125 µM

# — article PMC5209718, “Piscidin-1-analogs with double L- and D-lysine residues exhibited different conformations in lipopolysaccharide but comparable anti-endotoxin activities” (Scientific Reports, 2017)
